Test: xn = mol fraction of the nth substance listed

COC(C)=O + CCCO
viscosity [mPa·s]
Conditions | 298.15 K | 313.15 K
101 kPa, x1 = 0.0464 | 1.587 | 1.153
101 kPa, x1 = 0.0999 | 1.295 | 0.965
101 kPa, x1 = 0.1992 | 1.001 | 0.769
101 kPa, x1 = 0.3035 | 0.794 | 0.626
101 kPa, x1 = 0.4028 | 0.654 | 0.529
101 kPa, x1 = 0.5088 | 0.555 | 0.458
101 kPa, x1 = 0.5545 | 0.52 | 0.433
101 kPa, x1 = 0.6022 | 0.49 | 0.411
101 kPa, x1 = 0.7037 | 0.439 | 0.375
101 kPa, x1 = 0.7973 | 0.401 | 0.346
101 kPa, x1 = 0.8988 | 0.39 | 0.341
101 kPa, x1 = 0.9458 | 0.379 | 0.332
101 kPa, x2 = 0.1056 | 0.375 | –
101 kPa, x2 = 0.1987 | 0.399 | –
101 kPa, x2 = 0.298 | 0.432 | –
101 kPa, x2 = 0.3999 | 0.483 | –
101 kPa, x2 = 0.5012 | 0.55 | –
101 kPa, x2 = 0.5963 | 0.644 | –
101 kPa, x2 = 0.6991 | 0.793 | –
101 kPa, x2 = 0.7989 | 1.014 | –
101 kPa, x2 = 0.8845 | 1.306 | –
101.33 kPa, x1 = 0.0504 | 1.667 | –
101.33 kPa, x1 = 0.1935 | 1.074 | –
101.33 kPa, x1 = 0.3023 | 0.817 | –
101.33 kPa, x1 = 0.4167 | 0.654 | –
101.33 kPa, x1 = 0.5497 | 0.544 | –
101.33 kPa, x1 = 0.6021 | 0.509 | –
101.33 kPa, x1 = 0.6703 | 0.48 | –
101.33 kPa, x1 = 0.7809 | 0.439 | –
101.33 kPa, x1 = 0.8648 | 0.409 | –

COC(C)=O + O=C1CCCO1
298.15 K, 101.33 kPa
Conditions | viscosity [mPa·s]
x1 = 0.0471 | 1.585
x1 = 0.1055 | 1.467
x1 = 0.1514 | 1.365
x1 = 0.2015 | 1.254
x1 = 0.2517 | 1.16
x1 = 0.293 | 1.091
x1 = 0.4005 | 0.902
x1 = 0.4297 | 0.858
x1 = 0.4981 | 0.746
x1 = 0.5486 | 0.678
x1 = 0.5907 | 0.632
x1 = 0.701 | 0.52
x1 = 0.745 | 0.485
x1 = 0.7921 | 0.446
x1 = 0.8471 | 0.416
x1 = 0.9005 | 0.378
x1 = 0.9509 | 0.369

COC(C)=O + Cc1ccccc1
viscosity [mPa·s], 101 kPa
Conditions | 298.15 K | 308.15 K
x1 = 0.0413 | 0.536 | 0.487
x1 = 0.1501 | 0.502 | 0.459
x1 = 0.2505 | 0.476 | 0.437
x1 = 0.3495 | 0.454 | 0.419
x1 = 0.4385 | 0.437 | 0.404
x1 = 0.4859 | 0.429 | 0.397
x1 = 0.5491 | 0.42 | 0.389
x1 = 0.6486 | 0.407 | 0.377
x1 = 0.7514 | 0.397 | 0.367
x1 = 0.848 | 0.39 | 0.36
x1 = 0.9445 | 0.386 | 0.354

CCC(C)=O + CN(C)C=O
298.15 K, 101 kPa
Conditions | viscosity [mPa·s]
x2 = 0.0395 | 0.387
x2 = 0.0843 | 0.403
x2 = 0.1186 | 0.414
x2 = 0.1681 | 0.43
x2 = 0.2276 | 0.451
x2 = 0.2773 | 0.471
x2 = 0.3768 | 0.499
x2 = 0.5116 | 0.547
x2 = 0.6168 | 0.581
x2 = 0.7438 | 0.662
x2 = 0.8079 | 0.698

COCCOC + c1ccccc1
298.15 K, 101 kPa
Conditions | viscosity [mPa·s]
x1 = 0.0878 | 0.571
x1 = 0.1781 | 0.545
x1 = 0.2708 | 0.524
x1 = 0.3662 | 0.504
x1 = 0.4643 | 0.484
x1 = 0.5652 | 0.467
x1 = 0.6691 | 0.45
x1 = 0.7761 | 0.435
x1 = 0.8864 | 0.42

OCCNCCO + O=S1(=O)CCCC1
viscosity [mPa·s], 101 kPa
Conditions | x2 = 0.0999 | x2 = 0.2999 | x2 = 0.4687 | x2 = 0.6712 | x2 = 0.8322
303.15 K | 262.7 | 125.4 | 63.49 | 14.99 | 12.62
323.15 K | 73.14 | 32.73 | 15.33 | 9.455 | 7.362

Reference: the CheMixHub viscosity set
